Assay results published in publication PMC4184567, “Glucuronidation of drugs in humanized UDP-glucuronosyltransferase 1 mice: Similarity with glucuronidation in human liver microsomes” (Pharmacology Research & Perspectives, 2013).

What was measured:
[1] = test system: UGT (furosemide glucuronidation); assay: Inhibition of furosemide glucuronidation in regular mouse liver microsomes; assay type: in vitro ADME; conditions: CD-1, mouse, pH 7.4, probe furosemide; regular mice liver microsomes
Description: (§1) IC50 values were directly determined from linear regression.

[2] = test system: furosemide glucuronidation in mouse liver microsomes; assay: as above; assay type: in vitro ADME; conditions: regular mice liver microsomes, 500 μmol/L AZT
Description: as §1

[3] = test system: UGT (furosemide glucuronidation); assay: Inhibition of furosemide glucuronidation in human liver microsomes; assay type: in vitro ADME; conditions: pH 7.4, probe furosemide
Description: as §1

[4] = test system: furosemide glucuronidation in human liver microsomes; assay: as above; assay type: in vitro ADME; conditions: 500 μmol/L AZT
Description: as §1

[5] = test system: furosemide glucuronidation in liver microsomes from hUGT1 mice; assay: Inhibition of furosemide glucuronidation in liver microsomes from hUGT1 mice; assay type: in vitro ADME, humanized UGT1 mice; conditions: hUGT1 mice liver microsomes, 500 μmol/L AZT
Description: as §1

[6] = test system: UGT (furosemide glucuronidation); assay: as above; assay type: in vitro ADME, humanized UGT1 mice; conditions: male, Tg(UGT1A1*28)Ugt1−/− (hUGT1), C57BL/6 background, mouse (humanized UGT1), pH 7.4, probe furosemide; humanized UGT1 mice liver microsomes
Description: as §1

[7] = test system: UGT activities in mouse liver microsomes; set-up: method as in Court and Greenblatt [1997]; conditions: ref Court and Greenblatt [1997]; cited from earlier work
[8] = test system: UGT activities in human liver microsomes; set-up: method as in Court and Greenblatt [1997]; conditions: ref Court and Greenblatt [1997]; cited from earlier work
[9] = test system: liver microsomes from hUGT1 mice
[10] = test system: furosemide glucuronidation in liver microsomes from control mice; conditions: 0–0.5% BSA
[11] = test system: furosemide glucuronidation in liver microsomes from hUGT1 mice; conditions: 0–0.5% BSA
[12] = test system: furosemide glucuronidation in human liver microsomes; conditions: 0–0.5% BSA

For `Cc1cn([C@H]2C[C@H](N=[N+]=[N-])[C@@H](CO)O2)c(=O)[nH]c1=O` [AZT, 3′-azido-3′-deoxythymidine], the IC50 at 30 min [1] was greater than 500 µM, the “Inhibition of furosemide glucuronidation (in words)” value (shortened to “Inhibition”) [2] was “did not inhibit” and the IC50 at 30 min [3] was greater than 500 µM. For the same compound, the “Inhibition” value [4] was “did not inhibit”, the “Inhibition” value [5] was “did not inhibit” and the IC50 at 30 min [6] was greater than 500 µM.
In the case of `C[C@H](CCC(=O)NCCC[N+](C)(C)CCCS(=O)(=O)[O-])[C@H]1CC[C@H]2[C@@H]3[C@H](O)C[C@@H]4C[C@H](O)CC[C@]4(C)[C@H]3C[C@H](O)[C@]12C` [CHAPS], the “Increase of UGT activity by detergent” value [7] is given as 439–563% and the “Increase of UGT activities by detergent” value [8] is given as 9–66%.
`C[C@]12CC[C@@H]3c4ccc(O)cc4CC[C@H]3[C@@H]1CC[C@@H]2O` [estradiol] showed an IC50 at 30 min [1] of 111 µM, an IC50 at 30 min [3] of 31.7 µM and an IC50 at 30 min [6] of 32.5 µM.
In the case of `NCCc1c[nH]c2ccc(O)cc12` [serotonin], the IC50 at 30 min [1] is reported as 450 µM, the IC50 at 30 min [3] is reported as greater than 5000 µM and the IC50 at 30 min [6] is reported as 610 µM.
With `CN1CCN(CCCN2c3ccccc3Sc3ccc(C(F)(F)F)cc32)CC1` [trifluoperazine] the N-glucuronide formation (human liver microsomes) was “observed”, the N-glucuronide formation (mouse liver microsomes) was “not detected” and the N-glucuronide formation [9] was “lesser but detectable amount”.
In the case of bovine serum albumin [BSA], the “Effect of BSA on furosemide glucuronidation” value (from here on “Effect of BSA”) [10] is reported as “similarly observed”, the “Effect of BSA” value [11] is reported as “similarly observed” and the “Effect of BSA” value [12] is reported as “concentration-dependently activated”.
